Data on 15 compounds can be found in patent US9828379B2 (priority 2013, dated 2017).

In test [1] the target is T1, FAAH (Mus musculus, UniProt O08914).
T1 sequence (O08914 1-579): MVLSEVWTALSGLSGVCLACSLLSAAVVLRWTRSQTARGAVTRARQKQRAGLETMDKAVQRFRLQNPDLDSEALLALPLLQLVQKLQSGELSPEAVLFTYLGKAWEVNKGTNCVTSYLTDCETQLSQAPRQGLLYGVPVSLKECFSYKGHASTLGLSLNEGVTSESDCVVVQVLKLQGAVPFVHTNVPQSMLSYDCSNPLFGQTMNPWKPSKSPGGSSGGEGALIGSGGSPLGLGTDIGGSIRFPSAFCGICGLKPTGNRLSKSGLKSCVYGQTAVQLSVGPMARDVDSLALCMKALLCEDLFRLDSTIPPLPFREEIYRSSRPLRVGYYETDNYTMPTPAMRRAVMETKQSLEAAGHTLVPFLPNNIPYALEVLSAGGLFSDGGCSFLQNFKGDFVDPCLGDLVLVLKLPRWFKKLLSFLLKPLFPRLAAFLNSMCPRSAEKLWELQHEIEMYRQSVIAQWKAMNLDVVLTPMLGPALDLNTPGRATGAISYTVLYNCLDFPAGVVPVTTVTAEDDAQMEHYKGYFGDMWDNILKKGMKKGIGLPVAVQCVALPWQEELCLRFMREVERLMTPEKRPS
The experiment in a line: biochemical. Particulars: in vitro competitive ABPP.

Test [2] addresses T2, ABHD6 (Mus musculus, UniProt Q8R2Y0).
T2 sequence (Q8R2Y0 1-336): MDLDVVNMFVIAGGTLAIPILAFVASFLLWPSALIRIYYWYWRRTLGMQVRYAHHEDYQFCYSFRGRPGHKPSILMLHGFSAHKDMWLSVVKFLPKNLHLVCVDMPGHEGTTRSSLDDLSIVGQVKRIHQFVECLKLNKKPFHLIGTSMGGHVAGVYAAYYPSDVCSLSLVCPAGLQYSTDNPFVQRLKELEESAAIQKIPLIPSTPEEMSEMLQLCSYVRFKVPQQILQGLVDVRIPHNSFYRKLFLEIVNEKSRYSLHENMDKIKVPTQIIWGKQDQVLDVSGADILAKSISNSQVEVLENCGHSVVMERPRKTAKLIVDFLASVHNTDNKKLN
The experiment in a line: biochemical. Particulars: in vitro competitive ABPP.

The target of test [3] is T1, FAAH. Kind of test: In vitro competitive activity-based protein profiling (Table 2, % inhibition at 1 μM). It is filed as biochemical. The following applies: read-out: % Inhibition at 1 μM FAAH.
The target of test [4] is T2, ABHD6. The description is as above. The following applies: read-out: % Inhibition at 1 μM ABHD6. It is filed as biochemical.
The target of test [5] is T3, MAGL (Mus musculus, UniProt O35678).
T3 sequence (O35678 1-303): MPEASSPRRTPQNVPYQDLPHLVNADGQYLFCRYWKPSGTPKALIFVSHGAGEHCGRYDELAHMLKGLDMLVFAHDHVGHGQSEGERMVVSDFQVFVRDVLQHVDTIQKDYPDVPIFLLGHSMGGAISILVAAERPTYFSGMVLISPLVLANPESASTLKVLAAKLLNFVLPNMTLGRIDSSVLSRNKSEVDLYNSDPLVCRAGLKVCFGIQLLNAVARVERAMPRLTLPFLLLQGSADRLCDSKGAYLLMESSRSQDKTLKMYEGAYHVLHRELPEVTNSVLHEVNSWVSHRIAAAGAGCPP
The experiment in a line: biochemical. Particulars: mouse; in vitro competitive ABPP; read-out: Mouse (IC50 value, nM) MAGL.

Test [6] deals with T3, MAGL. Kind of test: In vitro competitive activity-based protein profiling (Table 2, % inhibition at 1 μM). Type of test: biochemical. The following applies: read-out: % Inhibition at 1 μM MAGL. The method, then: After 30 min, FP—Rh (1.0 μL, 50 μM in DMSO) was added and the mixture was incubated for another 30 min at 37° C. Reactions were quenched with SDS loading buffer (50 μL-4×) and run on SDS-PAGE.
Cell lysates were diluted with mock proteomes for use in competitive ABPP experiments.

A word on the IC50: it is the concentration at which inhibition is half-maximal. For orientation: inhibition means the relative decrease from the control value, in per cent.

Molecules are shown by their SMILES.

As for `CC(C)c1ccc(CN2CC3CN(C(=O)OC(C(F)(F)F)C(F)(F)F)CC3C2)c(N2CCOCC2)c1` (stereo not drawn) [Example 22, 1,1,1,3,3,3-Hexafluoropropan-2-yl 5-[[2-(morpholin-4-yl)-4-(propan-2-yl)phenyl]methyl]-octahydropyrrolo[3,4-c]pyrrole-2-carboxylate], the half-inhibitory concentration (IC50) on FAAH [1] was in the range of 1000 to 10000 nM; at ABHD6 [2] it was 1000 to 10000 nM; at MAGL [5], 100 to 1000 nM. Moreover, the inhibition at 1 µM on FAAH [3] was less than 25%; at ABHD6 [4], less than 25%; at MAGL [6], greater than 75%.
Consider `O=C(OC(C(F)(F)F)C(F)(F)F)N1CC2CN(Cc3ccc(Cl)cc3N3CCC3)CC2C1` (stereo not drawn) [Example 39, 1,1,1,3,3,3-Hexafluoropropan-2-yl 5-[[2-(azetidin-1-yl)-4-chlorophenyl]methyl]-octahydropyrrolo[3,4-c]pyrrole-2-carboxylate], for which the IC50 at FAAH [1] was 100 to 1000 nM; on ABHD6 [2], 1000 to 10000 nM; on MAGL [5], less than 100 nM. The inhibition at 1 µM on FAAH [3] was 25 to 75%; at ABHD6 [4] it was less than 25%; at MAGL [6], greater than 75%.
In the case of `O=C(ON1C(=O)CCC1=O)N1CC2CN(Cc3ccc(Cl)cc3N3CCOC4CCCC43)CC2C1` (stereo not drawn) [Example 82, 2,5-Dioxopyrrolidin-1-yl 5-(4-chloro-2-(hexahydrocyclopenta[b][1,4]oxazin-4(4aH)-yl)benzyl)hexahydropyrrolo[3,4-c]pyrrole-2(1H)-carboxylate], the results for the IC50 on FAAH [1], at ABHD6 [2] and at MAGL [5] were 1000 to 10000 nM, 1000 to 10000 nM and 100 to 1000 nM, respectively. Also, the inhibition at 1 µM on FAAH [3] was less than 25%; at ABHD6 [4], 25 to 75%; on MAGL [6] it was 25 to 75%.
On to `CC(=O)NC1CN(c2ccc(Cl)cc2CN2CC3CN(C(=O)OC(C(F)(F)F)C(F)(F)F)CC3C2)C1` (stereo not drawn) [Example 7, 1,1,1,3,3,3-Hexafluoropropan-2-yl 5-(2-(3-acetamidoazetidin-1-yl)-5-chlorobenzyl)hexahydropyrrolo[3,4-c]pyrrole-2(1H)-carboxylate], for which the values for the concentration for half-maximal inhibition (IC50) at FAAH [1], at ABHD6 [2] and on MAGL [5] were 1000 to 10000 nM, 1000 to 10000 nM and less than 100 nM, respectively.
Consider `O=C(ON1C(=O)CCC1=O)N1CC2CN(Cc3ccc(N4CCOCC4)cc3F)CC2C1` (stereo not drawn) [Example 79, 2,5-Dioxopyrrolidin-1-yl 5-(2-fluoro-4-morpholinobenzyl)hexahydropyrrolo[3,4-c]pyrrole-2(1H)-carboxylate], for which the IC50 on FAAH [1], on ABHD6 [2] and on MAGL [5] was 1000 to 10000 nM in each case.
As to `Cn1cc(CN2CC3CN(C(=O)ON4C(=O)CCC4=O)CC3C2)c(-c2ccccc2)n1` (stereo not drawn) [Example 114, 2,5-Dioxopyrrolidin-1-yl 5-((1-methyl-3-phenyl-1H-pyrazol-4-yl)methyl)hexahydropyrrolo[3,4-c]pyrrole-2(1H)-carboxylate], the IC50 is greater than 10000 nM on FAAH [1], 1000 to 10000 nM on ABHD6 [2] and 100 to 1000 nM at MAGL [5].
`CS(=O)(=O)NC1CCN(c2ccc(Cl)cc2CN2CC3CN(C(=O)OC(C(F)(F)F)C(F)(F)F)CC3C2)CC1` (stereo not drawn) [Example 6, 1,1,1,3,3,3-Hexafluoropropan-2-yl 5-(5-chloro-2-(4-(methylsulfonamido)piperidin-1-yl)benzyl)hexahydropyrrolo[3,4-c]pyrrole-2(1H)-carboxylate]: the values for the IC50 on FAAH [1], on ABHD6 [2] and on MAGL [5] were 1000 to 10000 nM, 1000 to 10000 nM and 100 to 1000 nM, respectively.
With `CCn1ncc(CN2CC3CN(C(=O)OC(C(F)(F)F)C(F)(F)F)CC3C2)c1C(=O)N1CCOCC1` (stereo not drawn) [Example 73, 1,1,1,3,3,3-Hexafluoropropan-2-yl 5-((1-ethyl-5-(morpholine-4-carbonyl)-1H-pyrazol-4-yl)methyl)hexahydropyrrolo[3,4-c]pyrrole-2(1H)-carboxylate], the concentration for half-maximal inhibition (IC50) at FAAH [1] was greater than 10000 nM; at ABHD6 [2], greater than 10000 nM; at MAGL [5], 100 to 1000 nM.
On to `Cc1c(CN2CC3CN(C(=O)ON4C(=O)CCC4=O)CC3C2)cccc1N1CCC(NS(C)(=O)=O)CC1` (stereo not drawn) [Example 140, 2,5-dioxopyrrolidin-1-yl 5-[[3-(4-methanesulfonamidopiperidin-1-yl)-2-methylphenyl]methyl]-octahydropyrrolo[3,4-c]pyrrole-2-carboxylate], for which the inhibition at 1 µM on FAAH [3] is less than 25%; on ABHD6 [4], less than 25%; on MAGL [6], 25 to 75%.
Turning to `CCn1cc(CN2CC3CN(C(=O)OC(C(F)(F)F)C(F)(F)F)CC3C2)c(C(=O)N2CCOCC2)n1` (stereo not drawn) [Example 76, 1,1,1,3,3,3-Hexafluoropropan-2-yl 5-((1-ethyl-3-(morpholine-4-carbonyl)-1H-pyrazol-4-yl)methyl)hexahydropyrrolo[3,4-c]pyrrole-2(1H)-carboxylate], the inhibition at 1 µM at FAAH [3] is less than 25%; at ABHD6 [4] it was less than 25%; at MAGL [6], 25 to 75%.
Take `CC(C)c1ccc(CN2CC3CN(C(=O)ON4C(=O)CCC4=O)CC3C2)c(N2CCCC2)c1` (stereo not drawn) [Example 98, 2,5-Dioxopyrrolidin-1-yl 5-[[4-(propan-2-yl)-2-(pyrrolidin-1-yl)phenyl]methyl]-octahydropyrrolo[3,4-c]pyrrole-2-carboxylate]: the inhibition at 1 µM on FAAH [3] was less than 25%; on ABHD6 [4], less than 25%; on MAGL [6] it was 25 to 75%.
In the case of `CCn1cc(CN2CC3CN(C(=O)OC(C(F)(F)F)C(F)(F)F)CC3C2)c(-c2ccc(N3CCOCC3)cc2)n1` (stereo not drawn) [Example 68, 1,1,1,3,3,3-Hexafluoropropan-2-yl 5-([1-ethyl-3-[4-(morpholin-4-yl)phenyl]-1H-pyrazol-4-yl]methyl)-octahydropyrrolo[3,4-c]pyrrole-2-carboxylate], the inhibition at 1 µM at FAAH [3] was less than 25%; on ABHD6 [4], less than 25%; at MAGL [6], greater than 75%.
As to `O=C(ON1C(=O)CCC1=O)N1CC2CN(Cc3ccc(C(=O)N4CCCCC4)cc3Cl)CC2C1` (stereo not drawn) [Example 161, 2,5-dioxopyrrolidin-1-yl 5-([2-chloro-4-[(piperidin-1-yl)carbonyl]phenyl]methyl)-octahydropyrrolo[3,4-c]pyrrole-2-carboxylate], the inhibition at 1 µM on FAAH [3], at ABHD6 [4] and on MAGL [6] was 25 to 75% throughout.
For the compound `CC(=O)NC1CCN(c2ccc(Cl)cc2CN2CC3CN(C(=O)OC(C(F)(F)F)C(F)(F)F)CC3C2)CC1` (stereo not drawn) [Example 5, 1,1,1,3,3,3-Hexafluoropropan-2-yl 5-(2-(4-acetamidopiperidin-1-yl)-5-chlorobenzyl)hexahydropyrrolo[3,4-c]pyrrole-2(1H)-carboxylate], the IC50 lay within 1000 to 10000 nM at FAAH [1], 1000 to 10000 nM on ABHD6 [2] and 100 to 1000 nM on MAGL [5].
As for `Cc1c(CN2CC3CN(C(=O)ON4C(=O)CCC4=O)CC3C2)cccc1N1CCN(S(C)(=O)=O)CC1` (stereo not drawn) [Example 141, 2,5-dioxopyrrolidin-1-yl 5-[[3-(4-methanesulfonylpiperazin-1-yl)-2-methylphenyl]methyl]-octahydropyrrolo[3,4-c]pyrrole-2-carboxylate], the inhibition at 1 µM is less than 25% at FAAH [3], less than 25% on ABHD6 [4] and 25 to 75% at MAGL [6].
